Laboratory results as given in ChEMBL document CHEMBL1140217, “Prolyl oligopeptidase inhibition by N-acyl-pro-pyrrolidine-type molecules” (J Med Chem, 2008).

Target: T1, Prolyl endopeptidase (Rattus norvegicus, UniProt O70196)
T1 sequence (O70196 whole entry): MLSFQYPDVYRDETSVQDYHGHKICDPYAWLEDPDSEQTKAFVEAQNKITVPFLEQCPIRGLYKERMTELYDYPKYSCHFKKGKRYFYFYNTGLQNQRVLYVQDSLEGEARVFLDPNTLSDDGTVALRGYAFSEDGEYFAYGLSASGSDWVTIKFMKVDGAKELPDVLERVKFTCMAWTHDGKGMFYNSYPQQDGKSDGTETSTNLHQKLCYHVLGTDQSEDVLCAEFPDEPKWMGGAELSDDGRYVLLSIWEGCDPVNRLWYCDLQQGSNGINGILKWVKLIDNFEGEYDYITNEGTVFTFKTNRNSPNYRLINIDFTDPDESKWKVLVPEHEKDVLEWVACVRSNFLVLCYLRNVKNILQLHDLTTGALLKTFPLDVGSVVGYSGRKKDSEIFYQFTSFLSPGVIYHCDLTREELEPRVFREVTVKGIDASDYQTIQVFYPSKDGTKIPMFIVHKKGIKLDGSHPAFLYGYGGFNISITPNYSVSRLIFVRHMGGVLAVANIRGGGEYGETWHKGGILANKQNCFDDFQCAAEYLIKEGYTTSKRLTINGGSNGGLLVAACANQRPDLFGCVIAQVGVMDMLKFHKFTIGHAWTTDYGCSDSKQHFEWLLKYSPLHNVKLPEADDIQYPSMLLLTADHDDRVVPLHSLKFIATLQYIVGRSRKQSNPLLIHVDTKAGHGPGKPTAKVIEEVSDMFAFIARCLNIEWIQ
Assay: Inhibition of POP in Sprague-Dawley rat brain homogenates
Type: tissue-based

Compound	IC50
O=C([C@@H]1CCCN1C(=O)CCCn1c(=O)c(-c2ccccc2)nc2ccccc21)N1CCCC1	59 nM
O=C([C@@H]1CCCN1C(=O)CCN1C(=O)c2ccccc2C1=O)N1CCCC1	3 nM
CCCCCCCC(=O)N1CCC[C@H]1C(=O)N1CCCC1	48 nM
O=C([C@@H]1CCCN1C(=O)CCCN1C(=O)c2ccccc2C1=O)N1CCCC1	40 nM
